The values that follow come from patent US20240294910A1, “NOVEL THERAPEUTIC AGENT FOR SEPTICEMIA, AND A METHOD FOR SCREENING FOR SAME” (Chugai Seiyaku Kabushiki Kaisha, priority 2014, published 2024).

Holding throughout (assay type): cell-based, mouse
The test system of one test is IL-6 mRNA. The experiment in a line: IL-6 mRNA expression by qPCR in LPS-stimulated peritoneal macrophages. The note with it: LPS (1 g/mL), test agent 20 μM, vs absence of CPZ, FIG. 7. How it is done: (§1) Peritoneal macrophages from C57BL/6 mice (aged 6 to 8 weeks) were stimulated with LPS ([…]) in the presence or absence of a test agent (20 μM). The relative expression levels of mRNAs of Arid5A, IL-6, and TNF-α were determined in the stimulated peritoneal macrophages by quantitative PCR (qPCR). The expression level of Arid5A mRNA was determined 2 hours after LPS stimulation. The expression levels of IL-6 mRNA and TNF-α mRNA were determined 2 hours, 6 hours, 12 hours, and 24 hours after LPS stimulation. FIGS. 6 to 8 show the results when chlorpromazine (CPZ) was used as a test agent.
For orientation: Real-time PCR tracks product formation cycle by cycle.

In the next test the test system is Arid5A mRNA. Briefly: Arid5A mRNA expression by qPCR in LPS-stimulated peritoneal macrophages. The conditions noted are these: peritoneal macrophages from C57BL/6 mice, LPS (1 g/mL), test agent 20 μM, 2 hours after LPS stimulation, vs absence of CPZ; FIG. 6. How it is done:
as §1

In a further test the test system is TNF-α mRNA. Briefly: TNF-α mRNA expression by qPCR in LPS-stimulated peritoneal macrophages. The conditions noted are these: LPS (1 g/mL), test agent 20 μM, determined 2, 6, 12 and 24 hours after LPS stimulation, FIG. 8. Here is the method: as §1

For the compound `CN(C)CCCN1c2ccccc2Sc2ccc(Cl)cc21` [CPZ, chlorpromazine], the “expression of IL-6 mRNA (qPCR)” value in the test on IL-6 mRNA (2 hours after LPS stimulation) and in the test with IL-6 mRNA (6 hours after LPS stimulation) was “markedly suppressed” throughout. Also, in the test on Arid5A mRNA, the “expression of Arid5A mRNA (qPCR)” value is “markedly suppressed”. For the same compound, the “expression of TNF-α mRNA (qPCR)” value in the test on TNF-α mRNA is listed as “no effect”.
